Consider 25 compounds from patent publication US9428508B2, “2,4-diamino-6,7-dihydro-5H-pyrrolo[2,3]pyrimidine derivatives as FAK/Pyk2 inhibitors” (Centaurus BioPharma Co., Ltd., priority 2011, dated 2016).

Each structure is given as a SMILES string.

As usually defined, the IC50 is the concentration needed to halve the response being measured. High values mean weaker potency, low ones greater potency.

In one assay the target is FAK (Homo sapiens (Human), UniProt Q05397). Put plainly: Biochemical assay for FAK activity (LANCE TR-FRET, ULight-poly Glu,Ala,Tyr substrate). To be noted: GST-tagged FAK, 120 min reaction. A digest of the protocol: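 GST-tagged FAK (2.5 nM working stock) with ULight-poly Glu,Ala,Tyr (666 nM stock) and ATP (33.3 μM stock) in Tris pH 7.5/MgCl2/DTT/CHAPS buffer with BSA, 120 min; EDTA-quenched. Phosphorylation read by TR-FRET with Eu-anti-phosphotyrosine (PY20) antibody after 60 min. Compounds tested as 12-point 3-fold dilutions.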
(In TR-FRET formats the signal depends on donor and acceptor labels being close together.)

In a further assay the target is PYK2 (Homo sapiens (Human), UniProt Q14289). Nature of the assay: Biochemical assay for PYK2 activity (LANCE TR-FRET, ULight-poly Glu,Ala,Tyr substrate). To be noted: GST-tagged PYK2, 40 min reaction. A digest of the protocol:
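GST-tagged human PYK2 (2 nM working stock) with ULight-poly Glu,Ala,Tyr (1:1:1) peptide (666 nM working stock) and ATP (46.6 μM working stock) in 40 mM Tris pH 7.5, MgCl2, 1 mM DTT, 1 mM CHAPS; 40 min reaction, EDTA quench. Phosphotyrosine read by LANCE Eu-anti-phosphotyrosine (PY20) TR-FRET after 60 min; 12-point 3-fold compound dilutions.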

Chain of FAK (Q05397 whole entry): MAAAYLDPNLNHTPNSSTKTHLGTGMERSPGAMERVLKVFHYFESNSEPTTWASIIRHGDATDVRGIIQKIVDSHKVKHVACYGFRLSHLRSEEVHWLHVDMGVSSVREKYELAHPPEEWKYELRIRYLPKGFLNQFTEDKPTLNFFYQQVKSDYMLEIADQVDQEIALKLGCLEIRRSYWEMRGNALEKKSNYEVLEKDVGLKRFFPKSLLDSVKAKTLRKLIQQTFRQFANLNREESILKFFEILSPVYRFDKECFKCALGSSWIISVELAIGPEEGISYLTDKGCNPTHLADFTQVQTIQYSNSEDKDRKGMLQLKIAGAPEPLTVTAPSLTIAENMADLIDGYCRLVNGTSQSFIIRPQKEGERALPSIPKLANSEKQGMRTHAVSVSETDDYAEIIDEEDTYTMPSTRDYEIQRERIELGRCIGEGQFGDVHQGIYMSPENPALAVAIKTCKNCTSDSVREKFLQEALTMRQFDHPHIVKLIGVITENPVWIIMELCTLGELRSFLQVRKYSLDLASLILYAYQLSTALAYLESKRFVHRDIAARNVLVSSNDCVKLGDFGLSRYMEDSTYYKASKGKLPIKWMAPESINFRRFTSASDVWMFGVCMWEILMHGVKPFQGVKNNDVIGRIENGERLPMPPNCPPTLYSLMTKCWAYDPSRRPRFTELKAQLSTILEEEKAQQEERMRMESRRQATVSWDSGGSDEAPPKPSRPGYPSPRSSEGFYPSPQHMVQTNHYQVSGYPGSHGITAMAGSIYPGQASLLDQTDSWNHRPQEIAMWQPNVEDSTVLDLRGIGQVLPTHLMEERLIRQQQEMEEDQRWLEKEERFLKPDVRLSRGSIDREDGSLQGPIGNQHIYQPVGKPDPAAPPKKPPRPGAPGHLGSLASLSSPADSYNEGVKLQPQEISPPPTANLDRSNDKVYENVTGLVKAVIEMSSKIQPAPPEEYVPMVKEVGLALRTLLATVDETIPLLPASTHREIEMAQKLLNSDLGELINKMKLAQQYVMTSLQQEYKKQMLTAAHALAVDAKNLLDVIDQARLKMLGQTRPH
Chain of PYK2 (Q14289 whole entry): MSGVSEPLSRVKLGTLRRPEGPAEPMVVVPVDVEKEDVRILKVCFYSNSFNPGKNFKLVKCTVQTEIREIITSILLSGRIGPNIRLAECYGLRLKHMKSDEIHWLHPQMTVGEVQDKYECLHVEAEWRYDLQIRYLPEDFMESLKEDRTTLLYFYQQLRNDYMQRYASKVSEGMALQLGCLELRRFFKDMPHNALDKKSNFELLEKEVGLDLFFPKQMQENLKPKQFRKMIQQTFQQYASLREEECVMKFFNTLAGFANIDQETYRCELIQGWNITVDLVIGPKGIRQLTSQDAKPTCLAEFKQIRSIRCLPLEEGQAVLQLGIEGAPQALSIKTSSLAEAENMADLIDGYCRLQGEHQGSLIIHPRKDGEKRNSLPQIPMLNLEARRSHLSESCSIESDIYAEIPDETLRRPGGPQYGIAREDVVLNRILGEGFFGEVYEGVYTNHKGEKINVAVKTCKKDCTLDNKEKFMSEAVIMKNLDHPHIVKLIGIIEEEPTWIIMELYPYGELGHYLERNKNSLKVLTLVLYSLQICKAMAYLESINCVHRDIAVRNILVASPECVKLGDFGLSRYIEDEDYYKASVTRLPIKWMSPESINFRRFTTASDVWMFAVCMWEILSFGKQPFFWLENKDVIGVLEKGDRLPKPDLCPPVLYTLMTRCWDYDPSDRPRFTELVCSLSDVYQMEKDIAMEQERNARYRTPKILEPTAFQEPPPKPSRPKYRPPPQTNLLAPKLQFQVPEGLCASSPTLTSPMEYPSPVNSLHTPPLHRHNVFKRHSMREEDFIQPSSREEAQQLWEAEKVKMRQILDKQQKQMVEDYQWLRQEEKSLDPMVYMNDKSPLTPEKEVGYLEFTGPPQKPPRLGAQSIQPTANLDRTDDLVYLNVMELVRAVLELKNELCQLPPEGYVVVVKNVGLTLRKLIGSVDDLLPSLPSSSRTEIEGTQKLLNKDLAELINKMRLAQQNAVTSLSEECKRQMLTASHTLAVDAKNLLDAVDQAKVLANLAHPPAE

With `CNS(=O)(=O)c1ccc(Nc2nc3c(c(Nc4ccccc4S(=O)(=O)NC(C)C)n2)CCN3)cc1` [Example 64, N-isopropyl-2-(2-(4-(N-methylsulfamoyl)phenylamino)-6,7-dihydro-5H-pyrrolo[2,3-d]pyrimidin-4-ylamino)benzenesulfonamide], the IC50 against FAK and on PYK2 was less than 20 nM throughout.
On to `CC(C)NS(=O)(=O)c1ccccc1Nc1nc(Nc2ccc(C(=O)N3CCCC3)cc2)nc2c1CCN2` [Example 78, N-isopropyl-2-(2-(4-(pyrrolidine-1-carbonyl)phenylamino)-6,7-dihydro-5H-pyrrolo[2,3-d]pyrimidin-4-ylamino)benzenesulfonamide], for which the 50% inhibitory concentration (IC50) against FAK and on PYK2 was less than 20 nM throughout.
On to `COc1cc(N2CCOCC2)ccc1Nc1nc2c(c(Nc3ccccc3S(=O)(=O)NC(C)C)n1)CCN2` [Example 40, N-isopropyl-2-(2-(2-methoxy-4-morpholinophenylamino)-6,7-dihydro-5H-pyrrolo[2,3-d]pyrimidin-4-ylamino)benzenesulfonamide], for which the concentration for half-maximal inhibition (IC50) on FAK and against PYK2 was less than 20 nM in each case.
On to `COc1cc(N2CCOCC2)ccc1Nc1nc2c(c(Nc3ccccc3S(=O)(=O)NC3CCC3)n1)C(C)CN2` (racemic) [Example 27, (±)-N-cyclobutyl-2-(2-(2-methoxy-4-morpholinophenylamino)-5-methyl-6,7-dihydro-5H-pyrrolo[2,3-d]pyrimidin-4-ylamino)benzenesulfonamide], for which the 50% inhibitory concentration (IC50) against FAK and against PYK2 was less than 20 nM in each case.
`COc1cc(N2CCOCC2)ccc1Nc1nc2c(c(Nc3ccccc3S(=O)(=O)NC(C)(C)C)n1)CCN2` [Example 47, N-tert-butyl-2-(2-(2-methoxy-4-morpholinophenylamino)-6,7-dihydro-5H-pyrrolo[2,3-d]pyrimidin-4-ylamino)benzenesulfonamide]: the values for the IC50 against FAK and on PYK2 were less than 200 nM and less than 100 nM, respectively.
As to `COc1cc(N2CCOCC2)ccc1Nc1nc2c(c(Nc3ccccc3S(=O)(=O)Nc3ccccc3)n1)C(C)(C)CN2` [Example 116, 2-(2-(2-methoxy-4-morpholinophenylamino)-5,5-dimethyl-6,7-dihydro-5H-pyrrolo[2,3-d]pyrimidin-4-ylamino)-N-phenylbenzenesulfonamide], the IC50 was less than 200 nM on FAK and less than 500 nM on PYK2.
With `CNC(=O)c1cccc(Nc2nc3c(c(Nc4ccccc4S(=O)(=O)NC(C)C)n2)CCN3)c1` [Example 74, 3-(4-(2-(N-isopropylsulfamoyl)phenylamino)-6,7-dihydro-5H-pyrrolo[2,3-d]pyrimidin-2-ylamino)-N-methylbenzamide], the values for the half-maximal inhibitory concentration (IC50) on FAK and against PYK2 were less than 20 nM and less than 50 nM, respectively.
Taken in the same sequence, the figures for `CNC(=O)c1ccccc1Nc1nc(Nc2cccc3ccoc23)nc2c1C(C)(C)CN2` [Example 131, 2-(2-(benzofuran-7-ylamino)-5,5-dimethyl-6,7-dihydro-5H-pyrrolo[2,3-d]pyrimidin-4-ylamino)-N-methylbenzamide] were less than 20 nM and less than 20 nM.
On to `CNC(=O)c1ccccc1Nc1nc(Nc2ccc(N3CCOCC3)cc2OC)nc2c1C(C)CN2` (racemic) [Example 23, (±)-2-(2-(2-methoxy-4-morpholinophenylamino)-5-methyl-6,7-dihydro-5H-pyrrolo[2,3-d]pyrimidin-4-ylamino)-N-methylbenzamide], for which the IC50 against FAK and against PYK2 was less than 50 nM throughout.
As to `CCNS(=O)(=O)c1ccccc1Nc1nc(Nc2ccc(N3CCOCC3)cc2OC)nc2c1C1(CC1)CN2` [Example 139, N-ethyl-2-(2′-(2-methoxy-4-morpholinophenylamino)-6′,7′-dihydrospiro[cyclopropane-1,5′-pyrrolo[2,3-d]pyrimidine]-4′-ylamino)benzenesulfonamide], the IC50 on FAK and against PYK2 was less than 20 nM each time.
As to `COc1cc(-n2cccn2)ccc1Nc1nc2c(c(Nc3ccccc3S(=O)(=O)NC(C)C)n1)CCN2` [Example 94, N-isopropyl-2-(2-(2-methoxy-4-(1H-pyrazol-1-yl)phenylamino)-6,7-dihydro-5H-pyrrolo[2,3-d]pyrimidin-4-ylamino)benzenesulfonamide], the 50% inhibitory concentration (IC50) on FAK is less than 50 nM; at PYK2, less than 200 nM.
Taken in the same sequence, the figures for `CC(C)NS(=O)(=O)c1ccccc1Nc1nc(Nc2ccc(N3CCOCC3)cn2)nc2c1CCN2` [Example 58, N-isopropyl-2-(2-(5-morpholinopyridin-2-ylamino)-6,7-dihydro-5H-pyrrolo[2,3-d]pyrimidin-4-ylamino)benzenesulfonamide] were less than 20 nM and less than 50 nM.
Taken in the same sequence, the figures for `COc1cc(N2CCOCC2)ccc1Nc1nc2c(c(Nc3ccccc3NC(C)=O)n1)C(C)CN2` (racemic) [Example 30, (±)-N-(2-(2-(2-methoxy-4-morpholinophenylamino)-5-methyl-6,7-dihydro-5H-pyrrolo[2,3-d]pyrimidin-4-ylamino)phenyl)acetamide] were less than 200 nM and less than 200 nM.
In the case of `COc1cc(N2CCOCC2)ccc1Nc1nc2c(c(Nc3ccccc3NC(C)=O)n1)CCN2` [Example 9, N-(2-(2-(2-methoxy-4-morpholinophenylamino)-6,7-dihydro-5H-pyrrolo[2,3-d]pyrimidin-4-ylamino)phenyl)acetamide], the IC50 against FAK and at PYK2 was less than 1000 nM throughout.
For `COc1cc(N2C(C)COCC2C)ccc1Nc1nc2c(c(Nc3ccccc3S(=O)(=O)NC(C)C)n1)CCN2` (centres unmarked) [Example 84, 2-(2-(4-(3,5-dimethylmorpholino)-2-methoxyphenylamino)-6,7-dihydro-5H-pyrrolo[2,3-d]pyrimidin-4-ylamino)-N-isopropylbenzenesulfonamide], the IC50 against FAK was less than 50 nM; against PYK2, less than 100 nM.
For `COc1cc(N2CCOCC2)ccc1Nc1nc2c(c(Nc3cccc(C)n3)n1)C1(CC1)CN2` [Example 154, N^2′-(2-methoxy-4-morpholinophenyl)-N^4′-(6-methylpyridin-2-yl)-6′,7′-dihydrospiro[cyclopropane-1,5′-pyrrolo[2,3-d]pyrimidine]-2′,4′-diamine], the IC50 is less than 50 nM on FAK and less than 100 nM against PYK2.
As for `CCCNS(=O)(=O)c1ccccc1Nc1nc(Nc2ccc(N3CCOCC3)cc2OC)nc2c1C1(CC1)CN2` [Example 148, 2-(2′-(2-methoxy-4-morpholinophenylamino)-6′,7′-dihydrospiro[cyclopropane-1,5′-pyrrolo[2,3-d]pyrimidine]-4′-ylamino)-N-propylbenzenesulfonamide], the half-inhibitory concentration (IC50) at FAK and on PYK2 was less than 20 nM throughout.
Regarding `Cc1cc(N2CCOCC2)ccc1Nc1nc2c(c(Nc3ccccc3S(=O)(=O)NC(C)C)n1)CCN2` [Example 66, N-isopropyl-2-(2-(2-methyl-4-morpholinophenylamino)-6,7-dihydro-5H-pyrrolo[2,3-d]pyrimidin-4-ylamino)benzenesulfonamide], the 50% inhibitory concentration (IC50) was less than 20 nM on FAK and less than 50 nM on PYK2.
As to `CC(C)NS(=O)(=O)c1ccccc1Nc1nc(Nc2cccc(NS(C)(=O)=O)c2)nc2c1CCN2` [Example 73, N-isopropyl-2-(2-(3-(methylsulfonamido)phenylamino)-6,7-dihydro-5H-pyrrolo[2,3-d]pyrimidin-4-ylamino)benzenesulfonamide], the concentration for half-maximal inhibition (IC50) on FAK and on PYK2 was less than 20 nM in each case.
Consider `CNC(=O)c1ccccc1Nc1nc(Nc2cccc3ccoc23)nc2c1CCN2` [Example 19, 2-(2-(benzofuran-7-ylamino)-6,7-dihydro-5H-pyrrolo[2,3-d]pyrimidin-4-ylamino)-N-methylbenzamide], for which the half-maximal inhibitory concentration (IC50) on FAK is less than 200 nM; against PYK2, less than 100 nM.
As for `COc1cc(N2CCOCC2)ccc1Nc1nc2c(c(Nc3ccccc3S(=O)(=O)NCCO)n1)C1(CC1)CN2` [Example 142, N-(2-hydroxyethyl)-2-(2′-(2-methoxy-4-morpholinophenylamino)-6′,7′-dihydrospiro[cyclopropane-1,5′-pyrrolo[2,3-d]pyrimidine]-4′-ylamino)benzenesulfonamide], the IC50 against FAK and on PYK2 was greater than 1000 nM each time.
For the compound `CNC(=O)c1ccccc1Nc1nc(Nc2ccc(N3CCOCC3)cc2CO)nc2c1CCN2` [Example 14, 2-(2-(2-(hydroxymethyl)-4-morpholinophenylamino)-6,7-dihydro-5H-pyrrolo[2,3-d]pyrimidin-4-ylamino)-N-methylbenzamide], the concentration for half-maximal inhibition (IC50) against FAK and on PYK2 was greater than 1000 nM in each case.
For the compound `CC(C)NS(=O)(=O)c1ccccc1Nc1nc(Nc2ccc(C(=O)N3CCOCC3)cc2)nc2c1CCN2` [Example 65, N-isopropyl-2-(2-(4-(morpholine-4-carbonyl)phenylamino)-6,7-dihydro-5H-pyrrolo[2,3-d]pyrimidin-4-ylamino)benzenesulfonamide], the concentration for half-maximal inhibition (IC50) at FAK and against PYK2 was less than 20 nM in each case.
As to `COc1cc(N2CCCC2)ccc1Nc1nc2c(c(Nc3ccccc3S(=O)(=O)NC(C)C)n1)CCN2` [Example 67, N-isopropyl-2-(2-(2-methoxy-4-(pyrrolidin-1-yl)phenylamino)-6,7-dihydro-5H-pyrrolo[2,3-d]pyrimidin-4-ylamino)benzenesulfonamide], the results for the IC50 against FAK and against PYK2 were less than 50 nM and less than 100 nM, respectively.
Regarding `COc1cc(N2CCOCC2)ccc1Nc1nc2c(c(Nc3ccccc3S(=O)(=O)NCC(C)C)n1)C1(CC1)CN2` [Example 137, N-isobutyl-2-(2′-(2-methoxy-4-morpholinophenylamino)-6′,7′-dihydrospiro[cyclopropane-1,5′-pyrrolo[2,3-d]pyrimidine]-4′-ylamino)benzenesulfonamide], the 50% inhibitory concentration (IC50) on FAK and against PYK2 was less than 20 nM in each case.
